Test results as given in PubChem BioAssay AID248 (DTP/NCI, 2004).
Several values for one entry are separate records, joined by “and”; a condition that tells them apart may be missing. Identical values can stand only once. Inconclusive results and toxic doses are left out. Rule as the data show it: active = T/C of 150% or more; inactive = T/C below 125%.

Tested on: L1210 leukemia ip in BDF1 mice, survival T/C
Assay: NCI In Vivo Anticancer Drug Screen. Data for tumor model L1210 Leukemia (intraperitoneal) in B6D2F1 (BDF1) mice
Conditions: endpoint: mean survival time, higher = longer survival
Method in brief: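 Ratio derived from survival: compound-dosed mice over vehicle-dosed mice, all bearing a transplantable tumor.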

[1] = dose: 100.0 mg/kg/injection, schedule: Q01DX009 (ip), vehicle: saline with Tween-80
[2] = dose: 100.0 mg/kg/injection, schedule: Q04DX003 (ip), vehicle: saline with Tween-80
[3] = dose: 200.0 mg/kg/injection, schedule: Q01DX009 (ip), vehicle: saline with Tween-80
[4] = dose: 200.0 mg/kg/injection, schedule: Q04DX003 (ip), vehicle: saline with Tween-80
[5] = dose: 400.0 mg/kg/injection, schedule: Q01DX009 (ip), vehicle: saline with Tween-80
[6] = dose: 400.0 mg/kg/injection, schedule: Q04DX003 (ip), vehicle: saline with Tween-80
[7] = dose: 50.0 mg/kg/injection, schedule: Q01DX001 (ip), vehicle: Klucel (hydroxypropylcellulose) (HPC)
[8] = dose: 50.0 mg/kg/injection, schedule: Q01DX001 (ip), vehicle: saline
[9] = dose: 100.0 mg/kg/injection, schedule: Q01DX001 (ip), vehicle: Klucel (hydroxypropylcellulose) (HPC)
[10] = dose: 100.0 mg/kg/injection, schedule: Q01DX001 (ip), vehicle: saline
[11] = dose: 200.0 mg/kg/injection, schedule: Q01DX001 (ip), vehicle: saline
[12] = dose: 100.0 mg/kg/injection, schedule: Q04DX003 (ip), vehicle: Klucel (hydroxypropylcellulose) (HPC)
[13] = dose: 200.0 mg/kg/injection, schedule: Q04DX003 (ip), vehicle: Klucel (hydroxypropylcellulose) (HPC)
[14] = dose: 400.0 mg/kg/injection, schedule: Q04DX003 (ip), vehicle: Klucel (hydroxypropylcellulose) (HPC)
[15] = dose: 200.0 mg/kg/injection, schedule: Q01DX001 (ip), vehicle: Klucel (hydroxypropylcellulose) (HPC)
[16] = dose: 100.0 mg/kg/injection, schedule: Q01DX009 (ip), vehicle: Klucel (hydroxypropylcellulose) (HPC)

Measured: T/C

NC(=O)c1ccccc1OC(=O)Nc1ccc(F)cc1
inactive: dose: 50.0 mg/kg/injection, schedule: Q01DX001 (ip), vehicle: carboxymethylcellulose (CMC) 100 % of control | dose: 50.0 mg/kg/injection, schedule: Q01DX009 (ip), vehicle: carboxymethylcellulose (CMC) 97 % of control | dose: 100.0 mg/kg/injection, schedule: Q01DX001 (ip), vehicle: carboxymethylcellulose (CMC) 103 % of control | dose: 100.0 mg/kg/injection, schedule: Q01DX009 (ip), vehicle: carboxymethylcellulose (CMC) 100 % of control and 103 % of control | dose: 100.0 mg/kg/injection, schedule: Q04DX002 (ip), vehicle: carboxymethylcellulose (CMC) 100 % of control and 109 % of control | dose: 200.0 mg/kg/injection, schedule: Q01DX001 (ip), vehicle: carboxymethylcellulose (CMC) 102 % of control | dose: 200.0 mg/kg/injection, schedule: Q04DX002 (ip), vehicle: carboxymethylcellulose (CMC) 100 % of control | dose: 400.0 mg/kg/injection, schedule: Q04DX002 (ip), vehicle: carboxymethylcellulose (CMC) 86 % of control

CCC(=O)Nc1cc(C(F)(F)F)ccc1Cl
inactive: [1] 96 % of control | [2] 103 % of control | [3] 96 % of control | [4] 98 % of control | [5] 98 % of control | [6] 98 % of control

CC(N)C(=O)NC(C)C(=O)O (stereo not given)
inactive: dose: 25.0 mg/kg/injection, schedule: Q01DX001 (ip), vehicle: Klucel (hydroxypropylcellulose) (HPC) 97 % of control | dose: 25.0 mg/kg/injection, schedule: Q01DX001 (ip), vehicle: saline 102 % of control | dose: 25.0 mg/kg/injection, schedule: Q04DX002 (ip), vehicle: saline 102 % of control | [7] 97 % of control | [8] 97 % of control | dose: 50.0 mg/kg/injection, schedule: Q04DX002 (ip), vehicle: saline 96 % of control | [9] 97 % of control | [10] 93 % of control | dose: 100.0 mg/kg/injection, schedule: Q04DX002 (ip), vehicle: saline 102 % of control

Clc1ccc(/C=N/Nc2nc3ccccc3s2)cc1Cl
inactive: dose: 40.0 mg/kg/injection, schedule: Q01DX Z (ip), vehicle: methylcellulose (MC) 88 % of control | dose: 60.0 mg/kg/injection, schedule: Q01DX Z (ip), vehicle: methylcellulose (MC) 103 % of control | dose: 90.0 mg/kg/injection, schedule: Q01DX Z (ip), vehicle: methylcellulose (MC) 94 % of control

C[C@]12CC[C@H](OC3OC(CO)C(O)C(O)C3O)C[C@H]1CC[C@@H]1[C@@H]2CC[C@]2(C)[C@@H](C3=CCOC3=O)CC[C@]12O (stereo not given in full)
inactive: dose: 0.5 mg/kg/injection, schedule: Q01DX001 (ip), vehicle: saline 103 % of control | dose: 0.5 mg/kg/injection, schedule: Q01DX010 (ip), vehicle: saline 98 % of control | dose: 1.0 mg/kg/injection, schedule: Q01DX001 (ip), vehicle: saline 105 % of control | dose: 1.0 mg/kg/injection, schedule: Q01DX010 (ip), vehicle: saline 107 % of control | dose: 2.0 mg/kg/injection, schedule: Q01DX001 (ip), vehicle: saline 105 % of control | dose: 2.0 mg/kg/injection, schedule: Q01DX010 (ip), vehicle: saline 107 % of control | dose: 4.0 mg/kg/injection, schedule: Q01DX001 (ip), vehicle: saline 103 % of control | dose: 8.0 mg/kg/injection, schedule: Q01DX001 (ip), vehicle: saline 103 % of control | dose: 16.0 mg/kg/injection, schedule: Q01DX001 (ip), vehicle: saline 108 % of control

CC(=O)NC(Cc1ccsc1)(C(=O)O)C(=O)O
inactive: [10] 93 % of control | [11] 98 % of control | dose: 400.0 mg/kg/injection, schedule: Q01DX001 (ip), vehicle: saline 98 % of control

CC(O)CC1CC(=O)CCC1=O (stereo not given)
inactive: dose: 100.0 mg/kg/injection, schedule: Q01DX009 (ip), vehicle: acetone 96 % of control | dose: 200.0 mg/kg/injection, schedule: Q01DX009 (ip), vehicle: acetone 101 % of control | dose: 400.0 mg/kg/injection, schedule: Q01DX009 (ip), vehicle: acetone 102 % of control

O=C1OCCO1
inactive: dose: 100.0 mg/kg/injection, schedule: Q04DX003 (ip), vehicle: saline sonified 95 % of control | dose: 200.0 mg/kg/injection, schedule: Q04DX003 (ip), vehicle: saline sonified 101 % of control | dose: 400.0 mg/kg/injection, schedule: Q04DX003 (ip), vehicle: saline sonified 101 % of control

CN1CCC(Br)(C(=O)c2ccccc2)CC1
inactive: dose: 75.0 mg/kg/injection, schedule: Q01DX001 (ip), vehicle: saline 101 % of control | dose: 150.0 mg/kg/injection, schedule: Q01DX001 (ip), vehicle: saline 93 % of control

O=C(O)c1ccccc1C(=O)Nc1ccc(O)cc1
inactive: dose: 75.0 mg/kg/injection, schedule: Q01DX009 (ip), vehicle: saline 102 % of control | dose: 150.0 mg/kg/injection, schedule: Q01DX009 (ip), vehicle: saline 100 % of control | dose: 300.0 mg/kg/injection, schedule: Q01DX009 (ip), vehicle: saline 117 % of control

Cc1ccccc1NC(=O)NCC(=O)O
inactive: [12] 104 % of control | [13] 98 % of control | [14] 93 % of control

c1ccc(C2=C(c3ccccc3)CC2)cc1
inactive: [7] 104 % of control | [9] 98 % of control | [15] 108 % of control

CCOC(=O)CNc1cc(Cl)cc(Cl)c1
inactive: dose: 100.0 mg/kg/injection, schedule: Q04DX002 (ip), vehicle: Klucel (hydroxypropylcellulose) (HPC) 100 % of control | dose: 200.0 mg/kg/injection, schedule: Q04DX002 (ip), vehicle: Klucel (hydroxypropylcellulose) (HPC) 96 % of control | dose: 400.0 mg/kg/injection, schedule: Q04DX002 (ip), vehicle: Klucel (hydroxypropylcellulose) (HPC) 96 % of control

NNc1ncnc2c1ccn2C1OC(CO)C(O)C1O (stereo not given)
inactive: dose: 5.0 mg/kg/injection, schedule: Q01DX001 (ip), vehicle: saline 110 % of control | dose: 10.0 mg/kg/injection, schedule: Q01DX001 (ip), vehicle: saline 110 % of control | dose: 20.0 mg/kg/injection, schedule: Q01DX001 (ip), vehicle: saline 121 % of control | dose: 35.0 mg/kg/injection, schedule: Q01DX001 (ip), vehicle: saline 108 % of control | dose: 40.0 mg/kg/injection, schedule: Q01DX001 (ip), vehicle: saline 115 % of control | dose: 53.0 mg/kg/injection, schedule: Q01DX001 (ip), vehicle: saline 114 % of control | dose: 80.0 mg/kg/injection, schedule: Q01DX001 (ip), vehicle: saline 114 % of control | [10] 119 % of control

CC(C)C(C)/C=C\C(C)C1CCC2=C3CCC4CC(O)CCC4(C)C3CCC21C (stereo not given)
inactive: [9] 97 % of control | [15] 97 % of control | dose: 400.0 mg/kg/injection, schedule: Q01DX001 (ip), vehicle: Klucel (hydroxypropylcellulose) (HPC) 93 % of control

CN(C)CCSSCCN(C)C
inactive: [8] 102 % of control | [10] 104 % of control | [11] 96 % of control

CC(Br)C(=O)NC(CC(N)=O)C(=O)O (stereo not given)
inactive: [1] 93 % of control | [3] 91 % of control

O=C(Nc1ccccc1C(F)(F)F)c1ccc(Cl)cc1Cl
inactive: [1] 91 % of control | [2] 94 % of control | [3] 96 % of control | [4] 92 % of control | [5] 89 % of control | [6] 95 % of control

C=CC(=O)NC1CCCCC1
inactive: dose: 25.0 mg/kg/injection, schedule: Q01DX009 (ip), vehicle: Klucel (hydroxypropylcellulose) (HPC) 97 % of control | dose: 50.0 mg/kg/injection, schedule: Q01DX009 (ip), vehicle: Klucel (hydroxypropylcellulose) (HPC) 95 % of control | [16] 102 % of control | [12] 100 % of control | [13] 98 % of control | [14] 100 % of control

CC(COS(C)(=O)=O)(COS(C)(=O)=O)Cc1ccccc1
inactive: [16] 103 % of control | dose: 200.0 mg/kg/injection, schedule: Q01DX009 (ip), vehicle: Klucel (hydroxypropylcellulose) (HPC) 95 % of control | dose: 400.0 mg/kg/injection, schedule: Q01DX009 (ip), vehicle: Klucel (hydroxypropylcellulose) (HPC) 93 % of control

Oc1ccc(C=Nc2ccccc2N=Cc2ccc(O)c(O)c2)cc1O
inactive: [1] 105 % of control | [2] 100 % of control | [3] 100 % of control | [4] 96 % of control | [5] 100 % of control | [6] 91 % of control
